In publication PMC9331004 (Scientific Reports, 2022):
Where two headings read alike, the source gives them in different places.

Assays:
[1] = system: SARS-CoV-2 (hCoV-19/Egypt/NRC-3/2020, NRC-03-nhCoV); experiment: microbe, parasite or virus in culture; type: cell-based; conditions: for IC50: Severe acute respiratory syndrome coronavirus 2, Vero C1008, 72 h
[2] = system: MERS-CoV (isolate NRCE-HKU270); experiment: microbe, parasite or virus in culture; type: cell-based; conditions: for IC50: Middle East respiratory syndrome-related coronavirus
SARS-CoV-2 [3] = experiment: microbe, parasite or virus in culture; type: cell-based
SARS-CoV-2 [4] = type: cell-based
in vitro = conditions: African green monkey, CC50, Vero-E6 cells, crystal violet
MERS-CoV [5] = type: cell-based
MERS-CoV [6] = type: cell-based; remark: listed apart in the source
[7] = read-out: IC50 against SARS-CoV-2
[8] = Vero C1008, read-out: IC50 against MERS-CoV
[9] = Vero C1008, read-out: IC50 MERS-CoV

SMILES	selectivity index (CC50/IC50) for SARS-CoV-2 [1]	IC50 [1, 7]	IC50 [2, 8]	effect on viral RNA copy number (qRT-PCR) (SARS-CoV-2 [3])	mode of action against SARS-CoV-2 (SARS-CoV-2 [4])	CC50 at 72 h (in vitro)	IC50 [2, 9]	CC50 at 72 h (in vitro; values given in Fig. 2)	IC50 ([1]; read-out: IC50 SARS-CoV-2)	selectivity index (CC50/IC50) for MERS-CoV [2]	effect on viral RNA copy number (qRT-PCR) (MERS-CoV [5])	mode of action against MERS-CoV (MERS-CoV [6])	inhibition at 8.3 µM (SARS-CoV-2 [3]; Severe acute respiratory syndrome coronavirus 2, Vero C1008, 48 h, read-out: viral inhibition compared to untreated and infected cells (qRT-PCR))
CN(C)CCC=C1c2ccccc2CCc2ccccc21 [Amitriptyline]	28.5	10.7 µM	129 µM	reduction in viral RNA copy number	remarkable virucidal effect and effects on virus replication	306 µM							
CN(C)CCCC1(c2ccc(F)cc2)OCc2cc(C#N)ccc21 (stereo not drawn) [Citalopram]		172 µM	302 µM			295 µM	303 µM	295 µM					
CN(C)CCC[C@@]1(c2ccc(F)cc2)OCc2cc(C#N)ccc21 [Escitalopram]		209 µM	93.5 µM			352 µM	93.6 µM						
CN1CCN(C(=O)O[C@H]2c3nccnc3C(=O)N2c2ccc(Cl)cn2)CC1 [Eszopiclone]		80 µM	99.9 µM			193 µM			80 µM				
CN(C)CCCN1c2ccccc2CCc2ccccc21 [Imipramine]		29.4 µM	14.2 µM			270 µM		271 µM	29.5 µM	19	reduction in viral RNA copy number	virucidal and replication potential combination mechanisms	
CN1CCN2c3ncccc3Cc3ccccc3C2C1 (stereo not drawn) [Mirtazapine]		180 µM	132 µM			572 µM		572 µM					
Fc1ccc([C@@H]2CCNC[C@H]2COc2ccc3c(c2)OCO3)cc1 [Paroxetine]	11.6	22.7 µM	7.7 µM	reduction in viral RNA copy number	remarkable virucidal effect and effects on virus replication	264 µM	7.73 µM			34.2	reduction in viral RNA copy number	virucidal and replication potential combination mechanisms	99%
CN[C@H]1CC[C@@H](c2ccc(Cl)c(Cl)c2)c2ccccc21 [Sertraline]						116 µM					reduction in viral RNA copy number	virucidal and adsorption mechanisms	
